Reference: PubChem BioAssay AID743394 (Broad Institute, 2014)
The source made the active and inactive calls.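 The calls were made as follows: active = 40% activation versus positive control reached by fitted dose-response curve at or below highest valid tested dose; inconclusive = poor fit quality, or flat fit with activation between 30% and 70%; inactive = the rest.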

Experiment: inactive X chromosome reactivation in XiGFP fibroblasts, dose response, imaging, 68-5-11 mouse fibroblasts, GFP, cherry-pick (AID 743394);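 also: sensitizer 5-aza-dC present in the wells at 0.5 mM final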
Conditions: 68-5-11 mouse fibroblast XiGFP reporter, % GFP-positive imaging, 3 d; at 19.5 µM (top of the series)

| Compound | activation |
| --- | --- |
| C[n+]1c(-c2ccccc2)c2cc(N)ccc2c2ccc(N)cc21 | 1.19% (inactive) |

Same assay, conditions: 68-5-11 mouse fibroblast XiGFP reporter, % GFP-positive imaging, 3 d; at 19.5 µM (top of the series); cells co-treated with 5-aza-dC sensitizer; scaled: neutral wells 0, ellipticine wells 100

| Compound | activation |
| --- | --- |
| CN(Cc1nc(CCc2ccccc2)no1)Cc1cccs1 | -0.037% (inactive) |
| NNC(=O)c1sc(-c2ccccc2)cc1N | 0.249% (inactive) |
| CC(=O)NC(c1ccc(Cl)cc1)c1c(O)ccc2ccc(O)cc12 (stereo unspecified) | 0.013% (inactive) |
| O=C(CCC(=O)Nc1cccnc1)Nc1cccnc1 | 0.049% (inactive) |
| Cc1ccc(-c2ccc3c(c2)O[C@@H](CN(C)Cc2ccncc2)[C@@H](C)CN([C@@H](C)CO)S3(=O)=O)cc1 | 0% (inactive) |
| CCn1nc(C)cc1-c1nnc(Sc2ncc([N+](=O)[O-])s2)n1C | -0.032% (inactive) |
| CC(C)CC#Cc1ccc([C@@H]2[C@@H](CO)N3C(=O)CN(C(=O)c4cccc(F)c4)C[C@H]23)cc1 | 0.027% (inactive) |
| C=CCn1c(SCC(=O)N(CC)C2CCS(=O)(=O)C2)nc2sc3c(c2c1=O)CCC3 (stereo unspecified) | -0.061% (inactive) |
| Cc1cc(C(=O)Nc2ccc(Cl)c(S(=O)(=O)N3CCOCC3)c2)c2ccccc2n1 | -0.053% (inactive) |
| COc1ccc(NC(=O)Nc2ccc3c(c2)C(=O)N([C@H](C)CO)C[C@H](C)[C@H](CN(C)Cc2ccc4c(c2)OCO4)O3)cc1 | -0.031% (inactive) |
| CCN(CC)CCCNC1=C(Cl)C(=O)c2ccccc2C1=O | -0.032% (inactive) |
| Cc1cccc(NC(=O)Cn2cnc3c(oc4nc5c(cc43)COC(C)(C)C5)c2=O)c1 | 4.42% (inactive) |
| COc1cc(/C=N/Nc2nc(N3CCCC3)nc(N3CCCC3)n2)ccc1OCc1ccccc1F | 0.149% (inactive) |
| CCOC(=O)[C@]12CCC=C1N(Cc1ccccc1)C(=O)[C@H](CC(=O)N1CCSCC1)C2 | -0.008% (inactive) |
| Cc1ccc(S(=O)(=O)N(C)C[C@H]2Oc3ccc(NC(=O)Nc4ccccc4)cc3CC(=O)N([C@H](C)CO)C[C@@H]2C)cc1 | -0.035% (inactive) |
| Nc1cc2c3c(cccc3c1)C(=O)N(CCN1CCCC1)C2=O | -0.037% (inactive) |
| Cn1c(=O)c2[nH]c(-c3ccc(S(=O)(=O)O)cc3)nc2n(C)c1=O | 0.001% (inactive) |
| COc1ccccc1CNC(=O)COC(=O)COc1ccccc1F | 0.549% (inactive) |
| COC1=CC(=O)c2nc(Cl)ccc2C1=O | 5.06% (inactive) |
| COc1cccc2cc(C(=O)N(Cc3cccs3)CC3CCCO3)c(=O)oc12 (stereo unspecified) | -0.044% (inactive) |
| CCOC(=O)Cc1csc(NC(=O)Nc2ccc(F)cc2)n1 | 0.472% (inactive) |
| CCOC(=O)c1sc2nc(CSc3ccccc3)[nH]c(=O)c2c1C | 0.303% (inactive) |

| Compound | activation |
| --- | --- |
| CC=Cc1ccc2n(c1=O)C[C@@H]1[C@@H](CO)[C@H](C(=O)NCCCN(C)C)[C@H]2N1C(=O)c1ccccc1F (mixture of isomers) | -0.01% (inactive) |
| CC(O)(c1ccccc1)c1nc(-c2ccncc2)cs1 (stereo unspecified) | 0.105% (inactive) |
| COc1ccc(-c2noc(-c3cccs3)n2)cc1OC | 0.151% (inactive) |
| O=C(N/N=C/c1ccc([N+](=O)[O-])o1)c1cc2ccccc2o1 | 4.43% (inactive) |
| O=C(CCN1CCCCC1)NCC[C@@H]1CC[C@H](NC(=O)C2CCCCC2)[C@H](CO)O1 | 0.052% (inactive) |
| COC(=O)c1ccc(NC(=O)c2nc(S(=O)(=O)Cc3cccc(C)c3)ncc2Cl)cc1 | -0.008% (inactive) |
| COc1ccc(CCCc2nc3ccccc3[nH]2)cc1 | -0.001% (inactive) |
| O=c1c2ccccc2nnn1Cc1ccc2ccccc2c1 | -0.047% (inactive) |
| COC(=O)CCN1CCC(c2cc(-c3cccc(C(F)(F)F)c3)n[nH]2)CC1 | 0.056% (inactive) |
| C[C@@H]1CCCCO[C@H](CN(C)C(=O)Nc2ccc(C(F)(F)F)cc2)[C@H](C)CN([C@H](C)CO)C(=O)c2cc(NC(=O)CCC(F)(F)F)ccc2O1 | 0.24% (inactive) |
| CC(=O)Nc1ccc(S(=O)(=O)N(C)c2ccc(OCC(=O)NCCc3ccccc3F)cc2)cc1 | -0.07% (inactive) |
| Cc1c(CN2CCCC(C(=O)c3cccc(OC(C)C)c3)C2)c(=O)n(-c2ccccc2)n1C (stereo unspecified) | -0.016% (inactive) |
| COc1cc(/C=C/c2ccc3cccc(O)c3n2)ccc1O | 3.08% (inactive) |
| COc1ccc(C(=O)Nc2c(F)c(F)c(F)c(F)c2F)cc1OC | -0.047% (inactive) |
| CCCOc1ccc(Oc2nc(-c3ccncc3)nc3ccccc23)cc1 | 0.003% (inactive) |
| C[C@@H]1CN([C@@H](C)CO)C(=O)c2cc(NS(C)(=O)=O)ccc2O[C@@H](C)CCCCO[C@@H]1CN(C)Cc1ccccc1 | 0.016% (inactive) |
| N/C(=N\OC(=O)C12CC3CC(CC(C3)C1)C2)c1ccncc1 | 0.008% (inactive) |
| O=C(C[C@H]1CC[C@H]2[C@@H](COC[C@@H](O)CN2C(=O)Nc2ccccc2)O1)NCCc1ccncc1 | 0.207% (inactive) |
| COC(=O)c1cnn(-c2ccccc2)c1N | 0.12% (inactive) |
| COc1cccc(CNC(=O)C(Cc2ccccc2)n2cccc2)c1 (stereo unspecified) | 0.002% (inactive) |
| C[C@@H]1CN(C)C(=O)Cc2cc(N(C)C)ccc2O[C@@H]1CN(C)S(C)(=O)=O | 0.115% (inactive) |
| COc1ccc2c3c([nH]c2c1)[C@@H](CO)N(Cc1ccccc1F)CC31CN(C(=O)C2CCOCC2)C1 | 0.046% (inactive) |

| Compound | activation |
| --- | --- |
| COc1ccc(S(=O)(=O)Nc2ccc3c(c2)C(=O)N([C@@H](C)CO)C[C@H](C)[C@H](CN(C)C(=O)CCCN(C)C)OCCCC[C@H](C)O3)cc1 | 0.053% (inactive) |
| O=C(/C=C/Sc1ccc(C(F)(F)F)cn1)c1ccccc1 | 0.096% (inactive) |
| COc1ccc2c3c([nH]c2c1)[C@@H](CO)N(Cc1cc(F)ccc1F)CC31CCN(C(C)=O)CC1 | -0.023% (inactive) |
| CCOC(=O)c1ccc(NC(=O)c2ccnn2C)cc1 | -0.044% (inactive) |
| COc1ccc(C2=C(c3ccccc3)OC(OC)c3cc(F)ccc32)cn1 (stereo unspecified) | 0.027% (inactive) |
| CCN(CC)c1ccc(/C=C(/C#N)C(=O)NCc2ccccc2)o1 | 12.4% (inactive) |
| O=C(N/N=C/c1ccc2cccnc2c1)c1nc2ccccc2c(=O)[nH]1 | 0.014% (inactive) |
| O=C(CCn1nc(-c2ccc(Cl)cc2)c2ccccc2c1=O)NN1CCOCC1 | -0.017% (inactive) |
| CCCN(C(=O)c1ccc(-n2cncn2)c([N+](=O)[O-])c1)C1CCS(=O)(=O)C1 (stereo unspecified) | -0.007% (inactive) |
| O=C(Nc1c(Cl)cccc1Cl)Oc1cccc2cccnc12 | -0.037% (inactive) |
| C[C@H](NC(=O)C[C@H]1CC[C@@H](NC(=O)Cc2ccccn2)[C@@H](CO)O1)c1ccccc1 | 0.043% (inactive) |
| Cc1ccc(S(=O)(=O)N(C)C[C@H]2OCCCC[C@@H](C)Oc3ccc(NC(=O)Nc4c(C)noc4C)cc3C(=O)N([C@H](C)CO)C[C@@H]2C)cc1 | -0.011% (inactive) |
| Cc1ccc(Cn2ccsc2=NC(=O)CCl)cc1 | -0.035% (inactive) |
| Cc1ccc(NC(=O)c2ncn(CCCNCCCN(C)C)n2)cc1C | 0.041% (inactive) |
| Cc1cc2c(NC(=O)Nc3ccc(C(C)(C)C)cc3)cccc2nn1 | 0.068% (inactive) |
| Cc1cc(=O)[nH]c(N/N=C/c2cc(C)n(-c3ccccc3)c2C)n1 | -0.016% (inactive) |
| C=CCn1c(=S)[nH]c2scc(-c3ccco3)c2c1=O | 0.072% (inactive) |
| CCN1CCc2c(sc(NC(=O)c3ccc4ccccc4c3)c2C(N)=O)C1 | -0.008% (inactive) |
| Cc1cccc(-c2ccc([C@@H]3[C@@H](CO)N4CCCCN(S(=O)(=O)c5ccccc5F)C[C@H]34)cc2)c1 | 0% (inactive) |
| CCOC(=O)/C(C#N)=C/C=C1/C=CC=CN1C | 0.071% (inactive) |
| CN(C)CCN(C(=O)c1ccc(S(=O)(=O)N(C)c2ccccc2)cc1)c1nc2cc3c(cc2s1)OCCO3 | -0.008% (inactive) |
| Cc1ccccc1NC(=O)c1c(C)[nH]c(=S)c(C#N)c1-c1ccc(Cl)cc1 | 0.075% (inactive) |

| Compound | activation |
| --- | --- |
| COc1ccc(CCn2c(C)cc(C(=O)CN3C(=O)C(=O)N(Cc4ccco4)C3=O)c2C)cc1 | 0.899% (inactive) |
| COc1ccc(CNC(=O)c2ccc(-c3cnn(C)c3)c3ccoc23)cc1OC | -0.037% (inactive) |
| CC(=O)N/C(N)=N/c1nc(=O)c2ccccc2s1 | -0.044% (inactive) |
| CCCC(=O)OCCNc1cc(Sc2nccn2C)c2nonc2c1[N+](=O)[O-] | -0.034% (inactive) |
| C(CCCN1CCCCC1)CCN1CCCCC1 | 0.047% (inactive) |
| Cc1ccc(NC(=O)c2cc(N3C(=O)C=CC3=O)ccc2N2CCOCC2)cc1Cl | -0.024% (inactive) |
| COc1ccc(-c2ccc(C(=O)NCc3cccs3)c3occc23)c(C)c1 | -0.032% (inactive) |
| CN(c1ccccc1)S(=O)(=O)c1ccc(C(=O)NCC(c2ccco2)N2CCCCC2)cc1 (stereo unspecified) | -0.009% (inactive) |
| COc1ccccc1C(=O)Nc1nnc(S(=O)(=O)N2CCCCCC2)s1 | 0.014% (inactive) |
| CC(=O)c1ccc2c(c1)OCCOCCOCCOCCOCCO2 | -0.021% (inactive) |
| CN1OC[C@@H]2CN(Cc3ccccc3)[C@H](c3cccc(N4CCOCC4)c3)C[C@@H]21 | 0.022% (inactive) |
| O=c1[nH]nc(SCCS(=O)(=O)c2ccc(F)cc2)n1-c1ccccc1C(F)(F)F | -0.024% (inactive) |
| NNc1nc2c(-c3ccc(F)cc3)nnn2c2ccccc12 | 0.731% (inactive) |
| CCN(CC)c1ccc(N=Cc2ccc([N+](=O)[O-])o2)cc1 | 0.626% (inactive) |
| C[C@@H]1CCCCO[C@@H](CN(C)C(=O)Nc2ccc(C(F)(F)F)cc2)[C@@H](C)CN([C@H](C)CO)C(=O)c2cc(NS(=O)(=O)c3ccc(F)cc3)ccc2O1 | -0.031% (inactive) |
| Cc1ccc(S(=O)(=O)Nc2cccc3c2O[C@H](CN(C)C(=O)Nc2cccc4ccccc24)[C@H](C)CN([C@H](C)CO)C3=O)cc1 | 0.028% (inactive) |
| COc1ccccc1N=Nc1c(C)[nH]n(-c2ccccc2)c1=O | -0.075% (inactive) |
| CCOc1ccc(C(Nc2cccnc2)c2cc(Cl)c3cccnc3c2O)cc1 (stereo unspecified) | 8.68% (inactive) |
| Cn1cc(C(=O)N/N=C/C(Br)=C/c2ccccc2)ccc1=O | -0.07% (inactive) |
